In patent US10329254B2, “Process for the preparation of 6-chloro-2,3,4,9-tetrahydro-1H-carbazole-1-carboxamide and intermediates thereof” (AOP ORPHAN PHARMACEUTICALS AG, priority 2011, dated 2019):
Values belong to the compound of their own block, whether it stands above or below them.

Columns and labels:
[1] = Form A stability tests under simulated drug substance storage conditions; assay type: physicochemical
Method: Tables 3 and 4: Form A stability data: Compound (I) in the form of Form A was packed in double bagged polythene bags (fastened with cable/security ties) and placed inside 3.6 L Curtec kegs (HDPE) to simulate typical drug substance storage conditions. Stability tests were performed at 40° C./75% RH (table 3) and 25° C./60% RH (table 4).

[2] = biological target: T1, Sirt1 (Homo sapiens, UniProt Q96EB6); conditions: known from WO2005026112; cited from earlier work
T1 sequence (Q96EB6 1-747): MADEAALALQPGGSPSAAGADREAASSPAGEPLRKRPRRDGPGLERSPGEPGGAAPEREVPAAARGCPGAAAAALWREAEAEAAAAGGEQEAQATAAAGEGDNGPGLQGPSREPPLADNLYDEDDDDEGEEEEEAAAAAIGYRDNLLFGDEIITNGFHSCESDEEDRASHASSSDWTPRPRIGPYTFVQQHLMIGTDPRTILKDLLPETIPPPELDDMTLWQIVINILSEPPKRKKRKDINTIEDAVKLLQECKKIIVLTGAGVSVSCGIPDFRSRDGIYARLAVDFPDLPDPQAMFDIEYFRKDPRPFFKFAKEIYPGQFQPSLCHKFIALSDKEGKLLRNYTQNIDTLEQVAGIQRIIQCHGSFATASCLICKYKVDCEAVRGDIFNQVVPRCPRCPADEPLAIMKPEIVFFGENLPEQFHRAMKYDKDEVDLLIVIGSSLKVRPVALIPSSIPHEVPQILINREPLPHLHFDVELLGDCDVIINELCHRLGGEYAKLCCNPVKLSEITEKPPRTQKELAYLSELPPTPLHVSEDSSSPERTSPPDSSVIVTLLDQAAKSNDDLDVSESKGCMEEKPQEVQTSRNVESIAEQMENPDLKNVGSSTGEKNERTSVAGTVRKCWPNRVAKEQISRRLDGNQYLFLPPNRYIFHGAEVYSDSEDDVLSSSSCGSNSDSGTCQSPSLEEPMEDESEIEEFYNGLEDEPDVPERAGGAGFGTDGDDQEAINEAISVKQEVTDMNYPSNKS

[3] = Hygroscopicity (absorption-desorption spectrum); assay type: physicochemical; conditions: FIG. 2 / FIG. 7
Text: FIG. 2: Absorption-Desorption spectrum of form A FIG. 7: Absorption-desorption spectrum of form B

- DSC (conforms to polymorph A) ([1]; 25° C./60% RH, t = 0): Conforms
- Impurity content (by HPLC), no single impurity greater than 0.50% area ([1]; 25° C./60% RH, t = 0): Conforms
- XRPD (conforms to polymorph) ([1]; 25° C./60% RH, t = 0): Conforms
- Assay (by HPLC) ([1]; 25° C./60% RH, t = 0, on an anhydrous and solvent free basis, spec 98.0-102.0% w/w): 99.7% w/w
- Water content (by KF titration) ([1]; 25° C./60% RH, t = 0, spec: not more than 0.5% w/w): <0.1% w/w
- Impurity content (by HPLC), total impurities ([1]; 25° C./60% RH, t = 0, spec: not more than 2.0% area): 0.31% area
- Description ([1]; 25° C./60% RH, t = 0, spec: white to off-white solid): Off-white
- Assay (by HPLC) ([1]; 25° C./60% RH, t = 1 month): 99.0% w/w
- Description ([1]; 25° C./60% RH, t = 1 month): Off-white
- Impurity content (by HPLC), no single impurity greater than 0.50% area ([1]; 25° C./60% RH, t = 1 month): Conforms
- Impurity content (by HPLC), total impurities ([1]; 25° C./60% RH, t = 1 month): 0.54% area
- Water content (by KF titration) ([1]; 25° C./60% RH, t = 1 month): <0.1% w/w
- Assay (by HPLC) ([1]; 25° C./60% RH, t = 3 months): 99.1% w/w
- Description ([1]; 25° C./60% RH, t = 3 months): Off-white
- Impurity content (by HPLC), no single impurity greater than 0.50% area ([1]; 25° C./60% RH, t = 3 months): Conforms
- Impurity content (by HPLC), total impurities ([1]; 25° C./60% RH, t = 3 months): 0.22% area
- Water content (by KF titration) ([1]; 25° C./60% RH, t = 3 months): 0.2% w/w
- Assay (by HPLC) ([1]; 25° C./60% RH, t = 6 months): 98.7% w/w
- DSC (conforms to polymorph A) ([1]; 25° C./60% RH, t = 6 months): Conforms
- Description ([1]; 25° C./60% RH, t = 6 months): Off-white
- Impurity content (by HPLC), no single impurity greater than 0.50% area ([1]; 25° C./60% RH, t = 6 months): Conforms
- Impurity content (by HPLC), total impurities ([1]; 25° C./60% RH, t = 6 months): 0.32% area
- Water content (by KF titration) ([1]; 25° C./60% RH, t = 6 months): 0.1% w/w
- XRPD (conforms to polymorph) ([1]; 25° C./60% RH, t = 6 months): Conforms
- Assay (by HPLC) ([1]; 25° C./60% RH, t = 9 months): 99.4% w/w
- Description ([1]; 25° C./60% RH, t = 9 months): Off-white
- Impurity content (by HPLC), no single impurity greater than 0.50% area ([1]; 25° C./60% RH, t = 9 months): Conforms
- Impurity content (by HPLC), total impurities ([1]; 25° C./60% RH, t = 9 months): 0.29% area
- Water content (by KF titration) ([1]; 25° C./60% RH, t = 9 months): <0.1% w/w
- Assay (by HPLC) ([1]; 25° C./60% RH, t = 12 months): 99.0% w/w
- DSC (conforms to polymorph A) ([1]; 25° C./60% RH, t = 12 months): Conforms
- Description ([1]; 25° C./60% RH, t = 12 months): Off-white
- Impurity content (by HPLC), no single impurity greater than 0.50% area ([1]; 25° C./60% RH, t = 12 months): Conforms
- Impurity content (by HPLC), total impurities ([1]; 25° C./60% RH, t = 12 months): 0.27% area
- Water content (by KF titration) ([1]; 25° C./60% RH, t = 12 months): 0.1% w/w
- XRPD (conforms to polymorph) ([1]; 25° C./60% RH, t = 12 months): Conforms
- Assay (by HPLC) ([1]; 25° C./60% RH, t = 18 months): 98.6% w/w
- Description ([1]; 25° C./60% RH, t = 18 months): Off-white
- Impurity content (by HPLC), no single impurity greater than 0.50% area ([1]; 25° C./60% RH, t = 18 months): Conforms
- Impurity content (by HPLC), total impurities ([1]; 25° C./60% RH, t = 18 months): 0.26 % area
- Water content (by KF titration) ([1]; 25° C./60% RH, t = 18 months): 0.1% w/w
- Assay (by HPLC) ([1]; 25° C./60% RH, t = 24 months): 98.2% w/w
- DSC (conforms to polymorph A) ([1]; 25° C./60% RH, t = 24 months): Conforms
- Description ([1]; 25° C./60% RH, t = 24 months): Off-white
- Impurity content (by HPLC), no single impurity greater than 0.50% area ([1]; 25° C./60% RH, t = 24 months): Conforms
- Impurity content (by HPLC), total impurities ([1]; 25° C./60% RH, t = 24 months): 0.39% area
- Water content (by KF titration) ([1]; 25° C./60% RH, t = 24 months): <0.1% w/w
- XRPD (conforms to polymorph) ([1]; 25° C./60% RH, t = 24 months): Conforms
- DSC (conforms to polymorph A) ([1]; 40° C./75% RH, t = 0): Conforms
- Impurity content (by HPLC), no single impurity greater than 0.50% area ([1]; 40° C./75% RH, t = 0): Conforms
- XRPD (conforms to polymorph A) ([1]; 40° C./75% RH, t = 0): Conforms
- Assay (by HPLC) ([1]; 40° C./75% RH, t = 0, anhydrous and solvent free-basis, spec 98.0-102.0% w/w): 99.7% w/w
- Water content (by KF titration) ([1]; 40° C./75% RH, t = 0, spec: not more than 0.5% w/w): <0.1% w/w
- Impurity content (by HPLC), total impurities ([1]; 40° C./75% RH, t = 0, spec: not more than 2.0% area): 0.31% area
- Description ([1]; 40° C./75% RH, t = 0, spec: white to off-white solid): Off-white
- Description ([1]; 40° C./75% RH, t = 1 month): Off-white
- Impurity content (by HPLC), no single impurity greater than 0.50% area ([1]; 40° C./75% RH, t = 1 month): Conforms
- Impurity content (by HPLC), total impurities ([1]; 40° C./75% RH, t = 1 month): 0.25% area
- Water content (by KF titration) ([1]; 40° C./75% RH, t = 1 month): <0.1% w/w
- Assay (by HPLC) ([1]; 40° C./75% RH, t = 1 month, anhydrous and solvent free-basis): 98.9% w/w
- Description ([1]; 40° C./75% RH, t = 3 months): Off-white
- Impurity content (by HPLC), no single impurity greater than 0.50% area ([1]; 40° C./75% RH, t = 3 months): Conforms
- Impurity content (by HPLC), total impurities ([1]; 40° C./75% RH, t = 3 months): 0.25% area
- Water content (by KF titration) ([1]; 40° C./75% RH, t = 3 months): 0.4% w/w
- Assay (by HPLC) ([1]; 40° C./75% RH, t = 3 months, anhydrous and solvent free-basis): 99.4% w/w
- Description ([1]; 40° C./75% RH, t = 6 months): Off-white
- Impurity content (by HPLC), no single impurity greater than 0.50% area ([1]; 40° C./75% RH, t = 6 months): Conforms
- Impurity content (by HPLC), total impurities ([1]; 40° C./75% RH, t = 6 months): 0.33% area
- Water content (by KF titration) ([1]; 40° C./75% RH, t = 6 months): 0.1% w/w
- XRPD (conforms to polymorph A) ([1]; 40° C./75% RH, t = 6 months): Conforms
- Assay (by HPLC) ([1]; 40° C./75% RH, t = 6 months, anhydrous and solvent free-basis): 99.0% w/w
- Stability over time ([1]; Tables 3 and 4 (40° C./75% RH and 25° C./60% RH)): stable over time
Structure (SMILES): NC(=O)C1CCCc2c1[nH]c1ccc(Cl)cc21 (centres unmarked) [Form A, 6-Chloro-2,3,4,9-tetrahydro-1H-carbazole-1-carboxamide]

Structure (SMILES): NC(=O)C1CCCc2c1[nH]c1ccc(Cl)cc21 (racemic) [Compound (I), rac-6-Chloro-2,3,4,9-tetrahydro-1H-carbazole-1-carboxamide]
- anti Sirt1 activity [2]: anti Sirt1 activity

- Hygroscopicity [3]: non hygroscopic
Structure (SMILES): NC(=O)C1CCCc2c1[nH]c1ccc(Cl)cc21 (centres unmarked) [Form B, 6-Chloro-2,3,4,9-tetrahydro-1H-carbazole-1-carboxamide]
